Source: ChEMBL document CHEMBL4706692, “CC-90009: A Cereblon E3 Ligase Modulating Drug That Promotes Selective Degradation of GSPT1 for the Treatment of Acute Myeloid Leukemia” (J Med Chem, 2021)

Legend:
[1] = Selectivity index, ratio of IC50 for cytotoxicity against human THLE-2 cells to IC50 for antiproliferative activity against human KG-1 cells
KG-1 = experiment: Antiproliferative activity against human KG-1 cells assessed as reduction in cell viability incubated for 72 hrs by cell titer glo assay; format: functional, cell-based; settings: KG-1, 72 h
THLE-2 = experiment: Cytotoxicity against human THLE-2 cells assessed as cell viability incubated for 72 hrs by cell titer glo assay; format: cell-based; settings: THLE-2, 72 h

Row | Compound | Ratio IC50 [1] | IC50 (KG-1) [nM] | IC50 (THLE-2) [nM]
1 | O=C1CCC(N2Cc3cc(CNC(=O)C(=O)c4ccccc4)ccc3C2=O)C(=O)N1 (stereo unspecified) | 22 | 9 | 196
2 | O=C(Cc1ccccc1)NCc1ccc2c(c1)CN(C1CCC(=O)NC1=O)C2=O (stereo unspecified) | 6 | 37 | 231
3 | O=C1CCC(N2Cc3cc(CNC(=O)Nc4ccccc4)ccc3C2=O)C(=O)N1 (stereo unspecified) | 4 | 15 | 60
4 | O=C1CCC(N2Cc3cc(CNC(=O)c4ccccc4)ccc3C2=O)C(=O)N1 (stereo unspecified) |  | > 10000 | > 10000
